Source: US20250312311A1, “Low Dose Fipronil Deer Feed” (priority 2024, published 2025)

What was measured:
[1] = tested on: Amblyomma americanum; experiment: Pen study: FDF efficacy against Amblyomma americanum parasitizing white-tailed deer (tick capsules, 8-day post-attachment); assay type: in vivo; conditions: Cp 13.5 ppb; the tick was A. americanum
[2] = tested on: I. scapularis larvae; conditions: larvae parasitizing P. leucopus; Poché et al. 2021; cited from earlier work
[3] = tested on: I. scapularis larvae; conditions: larvae parasitizing Peromyscus maniculatus; Pelletier et al. 2020; cited from earlier work

Row | Compound | live female ticks collected in total from a deer having Cp at 13.5 ppb [1] | Cp determined to control 100% I. scapularis larvae [2] | concentration in plasma required to control 94% I. scapularis larvae [3] | concentration in plasma required to control 97% I. scapularis larvae [3]
1 | N#Cc1nn(-c2c(Cl)cc(C(F)(F)F)cc2Cl)c(N)c1S(=O)(=O)C(F)(F)F [fipronil sulfone] | one | ≥ 8.8 ppb | – | –
2 | Cc1cc(C2=NOC(c3cc(Cl)cc(Cl)c3)(C(F)(F)F)C2)ccc1C(=O)NCC(=O)NCC(F)(F)F (stereo not shown) [fluralaner] | – | – | 4000 ppb | 13000 ppb
